The record followed here is patent publication US11084830B2, “Five-membered non aromatic ring-pyrimidine HIV-1 reverse transcriptase inhibitor, preparation method therefor, and uses thereof” (priority 2018, dated 2021).

As a reminder, the CC50 is the concentration that lowers cell viability or growth by half. For orientation: EC50 means the concentration giving half of the maximal effect.

For data set [1], the system named is mock-infected MT-4 cells. In words: Cytotoxicity in mock-infected MT-4 cells, MTT method. Format: cell-based. The note with it: human, 5 days. Here is the method:
(§1) The MTT method was described briefly as follows: stock solutions (10×final concentration) of test compounds were added in 25 μL volumes to two series of triplicate wells in order to allow simultaneous evaluation of the effects on mock- and HIV-infected cells. Using a Biomek 3000 robot (Beckman Instruments, Fullerton, Calif.), serial five-fold dilutions of the test compounds (final 200 μL volume per well) were made directly in flat-bottomed 96-well microtiter trays, including untreated control HIV-1 and mock-infected cell samples for each sample. HIV-1 (IIIB) and mutant HIV-1 strains stock (50 μL at 100-300 CCID50) or culture medium was added to either the infected or mock-infected wells of the microtiter tray. Mock-infected cells were used to evaluate the effect of test compounds on uninfected cells to assess cytotoxicity. Exponentially growing MT-4 cells were centrifuged for 5 min at 1000 rpm and the supernatant was discarded. The MT-4 cells were resuspended at 6×10^5 cells/mL, and 50 μL aliquots were transferred to the microtiter tray wells. At five days after infection, the viability of mock- and HIV-infected cells was determined spectrophotometrically by means of MTT assay.
(§2) The MTT assay is based on the reduction of yellow-colored MTT (Acros Organics, Geel, Belgium) by mitochondrial dehydrogenase of metabolically active cells to form a blue-purple formazan that can be measured spectrophotometrically. The absorbances were read in an eight-channel computer-controlled photometer, at the wavelengths of 540 and 690 nm. All data were calculated using the median optical density (OD) value of three wells.
A general note: Tetrazolium dyes change colour on reduction, which living cells bring about.

Data set [2] relates to NNRTI-resistant double-mutant strain K103N+Y181C (RES056). As to the kind of experiment: microbe, parasite or virus in culture. The format is cell-based, HIV-1. The note with it: for EC50: Human immunodeficiency virus 1, MT4, read-out: EC50 RES056; for SI RES056: selectivity index, ratio of CC50/EC50, strain RES056. Here is the method:
(§3) Antiviral potency was evaluated in MT-4 cell cultures infected with WT HIV-1 strain (IllB) as well as cells infected with a panel of NNRTI-resistant double-mutant strain K103N+Y181C (RES056).
(§4) Selected compounds were screened for inhibitory activity against HIV-1 using MTT method as describe previously by Christophe. Pannecouque et al. Nat. Protoc. […] And in vitro anti-HIV activity of compounds were supported by Rega Institute for Medical Research. The MTT assay is based on the reduction of the yellow colored 3-(4,5-dimethylthiazol-2-yl)-2,5-diphenyltetrazolium bromide (MTT) by mitochondrial dehydrogenases of metabolically active cells to a blue formazan which can be measured spectrophotometrically. Tested optical density served as an indicator for live cells, and survival rate can be concluded by testing the optical density of 540 nm and 690 nm. MT-4 cells infected with HIV-1 can only survive for 5 to 7 days without any treatment, but when HIV-1 inhibitors were added, they can protect MT-4 cell from cytopathic. Serial solution of compounds was added to MT-4 cells after infected with HIV-1, MTT method was used to detect the survival rate after culture for 5 to 7 days.
(§5) (1) MT-4 cells infected with HIV-1 viral strains (IIIB, Y181C/K103N) were provided by Rega Institute for Medical Research, Katholieke Universiteit Leuven, Belgium.
(§6) (3) Preparation of compounds: Stock solutions (10×final concentration) of test compounds is diluted with double distilled H2O for 5 folds and 5 concentrations of one compound are prepared.
(§7) (5) Test method (MTT method): Serial five-fold dilutions of test compounds were added to cultured MT-4 cells infected with HIV-1, after 5 to 7 days, MTT was added and cultured for a few hours.
as §1, with “HIV-1 (IIIB) and mutant HIV-1 strains stock (50 μL at 100-300 CCID50) or culture medium was added to either the infected or mock-infected wells of the microtiter tray.” left out, “The MT-4 cells were resuspended at 6×10^5 cells/mL, and 50 μL aliquots were transferred to the microtiter tray wells.” left out
as §2

The subject of data set [3] is WT HIV-1 strain (IIIB). In words: Anti-HIV-1 activity in MT-4 cells, MTT method, wild-type strain IIIB. Format: cell-based. Particulars: for SI IIIB: selectivity index, ratio of CC50/EC50, strain IIIB; for EC50: Human immunodeficiency virus 1, IIIB, MT4, read-out: EC50 IIIB. Here is the method: as §3, §4, §5, §6, §7
as §1, with “HIV-1 (IIIB) and mutant HIV-1 strains stock (50 μL at 100-300 CCID50) or culture medium was added to either the infected or mock-infected wells of the microtiter tray.” left out, “The MT-4 cells were resuspended at 6×10^5 cells/mL, and 50 μL aliquots were transferred to the microtiter tray wells.” left out
as §2

Data set [4] can be described thus: Cytotoxicity in mock-infected MT-4 cells, MTT method. The format is cell-based. Particulars: human. The procedure: as §1, §2
[5] abbreviates: concentration reducing viability of mock-infected MT-4 cell cultures by 50%, MTT method, read-out: CC50.

Read-outs that look alike come from different tables or passages of the source.

The compound `Cc1cc(C#N)cc(C)c1Oc1nc(NC2CCN(Cc3ccc(S(N)(=O)=O)cc3)CC2)nc2c1SCC2` [Compound A1, 4-((4-((4-(4-cyano-2,6-dimethylphenoxy)-6,7-dihydrothieno[3,2-d]pyrimidin-2-yl)amino)piperidin-1-yl)methyl)benzenesulfonamide] returned a CC50 in data set [1] of 19.9 ± 10.1 µM. In data set [2], the EC50 worked out at 28.8 ± 1.2 nM and the “SI RES056” value came to 692. Further, in data set [3], the “SI IIIB” value is recorded as 4584.
In turn, `Cc1cc(C#N)cc(C)c1Oc1nc(NC2CCN(Cc3ccc(C(N)=O)cc3)CC2)nc2c1SCC2` [Compound A2, 4-((4-((4-(4-cyano-2,6-dimethylphenoxy)-6,7-dihydrothieno[3,2-d]pyrimidin-2-yl)amino)piperidin-1-yl)methyl)benzamide] yielded a CC50 in data set [1] of 165 ± 36.9 µM. For the same compound, in data set [2], the 50% effective concentration (EC50) amounted to 43.6 ± 5 nM and the “SI RES056” value amounted to 3804. Besides, the “SI IIIB” value in data set [3] was 34162.
As to `Cc1cc(C#N)cc(C)c1Oc1nc(NC2CCN(Cc3ccncc3)CC2)nc2c1SCC2` [Compound A4, 3,5-dimethyl-4-((2-((1-(pyridin-4-ylmethyl)piperidin-4-yl)amino)-6,7-dihydrothieno[3,2-d]pyrimidin-4-yl)oxy)benzonitrile], the 50% cytotoxic concentration (CC50) at 5 days in data set [4] (CC50) was not below 106 µM. In data set [2], the concentration giving a half-maximal response (EC50) is 46 ± 1.9 nM and the “SI RES056” value is given as not below 2305. In addition, in data set [3], the “SI IIIB” value is listed as not below 40104.
For `Cc1cc(C#N)cc(C)c1Oc1nc(NC2CCN(Cc3cccc(C(N)=O)c3)CC2)nc2c1SCC2` [Compound A6, 3-((4-((4-(4-cyano-2,6-dimethylphenoxy)-6,7-dihydrothieno[3,2-d]pyrimidin-2-yl)amino)piperidin-1-yl)methyl)benzamide], the CC50 at 5 days in data set [4] (CC50) is not below 223 µM. Further, in data set [2], the 50% effective concentration (EC50) turned out to be 629 nM and the “SI RES056” value is recorded as not below 355. In addition, the “SI IIIB” value in data set [3] is not below 8048.
`Cc1cc(C#N)cc(C)c1Oc1nc(NC2CCN(Cc3ccc(S(N)(=O)=O)cc3)CC2)nc2c1COC2` [Compound B1, 4-((4-((4-(4-cyano-2,6-dimethylphenoxy)-5,7-dihydrofuro[3,4-d]pyrimidin-2-yl)amino)piperidin-1-yl)methyl)benzenesulfonamide] came in with a CC50 at 5 days in data set [4] (CC50) of 22.9 ± 2.89 µM. For the same compound, in data set [2], the EC50 turned out to be 38 ± 7.5 nM and the “SI RES056” value came out at 604. Also, in data set [3], the EC50 is 2 ± 0.2 nM and the “SI IIIB” value is 11167.
In data set [4] (CC50), `Cc1cc(C#N)cc(C)c1Oc1nc(NC2CCN(Cc3ccc(S(C)(=O)=O)cc3)CC2)nc2c1COC2` [Compound B3, 3,5-dimethyl-4-((2-((1-(4-(methylsulfonyl)benzyl)piperidin-4-yl)amino)-5,7-dihydrofuro[3,4-d]pyrimidin-4-yl)oxy)benzonitrile] yielded a CC50 at 5 days of 27 ± 3.03 µM. Moreover, in data set [2], the EC50 is 41.6 ± 4.9 nM and the “SI RES056” value was determined as 648. Moreover, in data set [3], the EC50 amounted to 1.8 nM and the “SI IIIB” value turned out to be 14414.
Regarding `Cc1cc(C#N)cc(C)c1Oc1nc(NC2CCN(Cc3ccncc3)CC2)nc2c1COC2` [Compound B4, 3,5-dimethyl-4-((2-((1-(pyridin-4-ylmethyl)piperidin-4-yl)amino)-5,7-dihydrofuro[3,4-d]pyrimidin-4-yl)oxy)benzonitrile], half-maximal cytotoxicity in data set [4] (CC50) (CC50 at 5 days) was put at 32.5 ± 10 µM. Besides, in data set [2], the EC50 amounted to 43.1 ± 1.2 nM and the “SI RES056” value worked out at 753. Further, in data set [3], the concentration for a half-maximal effect (EC50) is 2.8 nM and the “SI IIIB” value came out at 11414.
In turn, `Cc1cc(C#N)cc(C)c1Oc1nc(NC2CCN(Cc3ccc([N+](=O)[O-])cc3)CC2)nc2c1COC2` [Compound B5, 3,5-dimethyl-4-((2-((1-(4-nitrobenzyl)piperidin-4-yl)amino)-5,7-dihydrofuro[3,4-d]pyrimidin-4-yl)oxy)benzonitrile] yielded a CC50 at 5 days in data set [4] (CC50) not below 11.1 µM. In data set [2], the EC50 came out at 511 ± 165 nM and the “SI RES056” value is not below 22. Besides, in data set [3], the “SI IIIB” value is reported as not below 1497.
`Cc1cc(C#N)cc(C)c1Oc1nc(NC2CCN(Cc3cccc(C(N)=O)c3)CC2)nc2c1COC2` [Compound B6, 3-((4-((4-(4-cyano-2,6-dimethylphenoxy)-5,7-dihydrofuro[3,4-d]pyrimidin-2-yl)amino)piperidin-1-yl)methyl)benzamide]: the CC50 at 5 days in data set [4] (CC50) was more than 250 µM. For the same compound, the results for the half-maximal effective concentration (EC50) in data set [2] and in data set [3] were 1030 ± 51.1 nM and 7.8 ± 3.4 nM, respectively.
`Cc1cc(C#N)cc(C)c1Oc1nc(NC2CCN(Cc3ccc(C(N)=O)cc3)CC2)nc2c1CCC2` [Compound C2, 4-((4-((4-(4-cyano-2,6-dimethylphenoxy)-6,7-dihydro-5H-cyclopenta[d]pyrimidin-2-yl)amino)piperidin-1-yl)methyl)benzamide] came in with a CC50 at 5 days in data set [4] (CC50) of more than 251 µM. Also, in data set [2], the EC50 was determined as 173 ± 110 nM and the “SI RES056” value is more than 1448. In addition, the “SI IIIB” value in data set [3] is listed as more than 40984.
Take `Cc1cc(C#N)cc(C)c1Oc1nc(NC2CCN(Cc3ccc(S(C)(=O)=O)cc3)CC2)nc2c1CCC2` [Compound C3, 3,5-dimethyl-4-((2-((1-(4-(methylsulfonyl)benzyl)piperidin-4-yl)amino)-6,7-dihydro-5H-cyclopenta[d]pyrimidin-4-yl)oxy)benzonitrile]: the CC50 at 5 days in data set [4] (CC50) is more than 274 µM; in data set [4] (setting [5]) it was more than 200 µM. In addition, the 50% effective concentration (EC50) stood at 54.7 ± 6.22 nM in data set [2] and 1.8 ± 0.7 nM in data set [3]. Also, the “SI RES056” value in data set [2] is given as more than 5020.
Turning to `Cc1cc(C#N)cc(C)c1Oc1nc(NC2CCN(Cc3ccncc3)CC2)nc2c1CCC2` [Compound C4, 3,5-dimethyl-4-((2-((1-(pyridin-4-ylmethyl)piperidin-4-yl)amino)-6,7-dihydro-5H-cyclopenta[d]pyrimidin-4-yl)oxy)benzonitrile], the 50% cytotoxic concentration (CC50) at 5 days is 205 ± 1.13 µM in data set [4] (CC50) and more than 200 µM in data set [4] (setting [5]). For the same compound, the concentration for a half-maximal effect (EC50) in data set [2] was found to be 26800 nM; in data set [3] it was 2 ± 0.5 nM. In addition, the “SI RES056” value in data set [2] is 9.
In turn, `Cc1cc(C#N)cc(C)c1Oc1nc(NC2CCN(Cc3ccc([N+](=O)[O-])cc3)CC2)nc2c1CCC2` [Compound C5, 3,5-dimethyl-4-((2-((1-(4-nitrobenzyl)piperidin-4-yl)amino)-6,7-dihydro-5H-cyclopenta[d]pyrimidin-4-yl)oxy)benzonitrile] yielded a CC50 at 5 days in data set [4] (CC50) of 7.45 ± 0.93 µM. In data set [2], the EC50 was determined as 187 nM and the “SI RES056” value is given as 40. Also, in data set [3], the concentration for a half-maximal effect (EC50) was determined as 4.9 ± 0.8 nM and the “SI IIIB” value is listed as 1495.
`Cc1cc(C#N)cc(C)c1Oc1nc(NC2CCN(Cc3cccc(C(N)=O)c3)CC2)nc2c1CCC2` [Compound C6, 3-((4-((4-(4-cyano-2,6-dimethylphenoxy)-6,7-dihydro-5H-cyclopenta[d]pyrimidin-2-yl)amino)piperidin-1-yl)methyl)benzamide]: in data set [4] (CC50), it took 8.73 ± 3.53 µM to reach half-maximal cytotoxicity (CC50 at 5 days). Further, in data set [2], the 50% effective concentration (EC50) is 941 ± 368 nM and the “SI RES056” value turned out to be 9. For the same compound, in data set [3], the EC50 is 14.5 ± 3.6 nM and the “SI IIIB” value turned out to be 599.
For `Cc1cc(C#N)cc(C)c1Oc1nc(Nc2ccc(C#N)cc2)nc(N)c1Br` [ETR, Etravirine, reference compound], the CC50 at 5 days in data set [4] (CC50) is more than 4.59 µM.
As to `Cc1ccnc2c1NC(=O)c1cccnc1N2C1CC1` [NVP, Nevirapine, reference compound], in data set [4] (mock-infected MT-4 cells, concentration reducing viability of mock-infected MT-4 cell cultures by 50%, MTT method, read-out: CC50), the half-maximal cytotoxic concentration (CC50) at 5 days was more than 9.51 µM. Further, the concentration for a half-maximal effect (EC50) in data set [2] is more than 9510 nM; in data set [3], 163 ± 41.2 nM.
